System: MV-4-11 cells
Assay: Gene expression microarray analysis (Affymetrix PrimeView) and GSEA
Type: cell-based, human
Design: RFU PODN (11730768_x_at) / Fold change /veh PODN (11730768_x_at) / RFU LINC00158 (11744669_a_at) / Fold change /veh LINC00158 (11744669_a_at) / RFU DUSP10 (11751237_a_at) / Fold change /veh DUSP10 (11751237_a_at) / RFU ID3 (11757404_x_at) / Fold change /veh ID3 (11757404_x_at) / RFU PLEKHG5 (11737974_s_at) / Fold change /veh PLEKHG5 (11737974_s_at) / RFU LRRC4B (11730491_at) / Fold change /veh LRRC4B (11730491_at) / RFU GIMAP4 (11747438_a_at) / Fold change /veh GIMAP4 (11747438_a_at) / RFU KRT8 (11758183_x_at) / Fold change /veh KRT8 (11758183_x_at) / RFU CNN1 (11734310_a_at) / Fold change /veh CNN1 (11734310_a_at) / RFU VPS37D (11726825_at) / Fold change /veh VPS37D (11726825_at) / RFU C10orf10 (11716522_x_at) / Fold change /veh C10orf10 (11716522_x_at) / RFU KIR2DL2 /// KIR2DL4 /// KIR2DL5A /// KIR2DL5B /// KIR2DS1 /// KIR2DS2 /// KIR2DS3 /// KIR2DS4 /// KIR3DL3 /// KIR3DL3 /// KIR3DS1 (11738374_at) / Fold change /veh KIR2DL2 /// KIR2DL4 /// KIR2DL5A /// KIR2DL5B /// KIR2DS1 /// KIR2DS2 /// KIR2DS3 /// KIR2DS4 /// KIR3DL3 /// KIR3DL3 /// KIR3DS1 (11738374_at) / RFU C1QL1 (11718748_at) / Fold change /veh C1QL1 (11718748_at) / RFU TMPRSS4 (11747572_a_at) / Fold change /veh TMPRSS4 (11747572_a_at) / RFU HAMP (11756126_x_at) / Fold change /veh HAMP (11756126_x_at) / RFU RNFT2 (11725882_a_at) / Fold change /veh RNFT2 (11725882_a_at) / RFU NR4A2 (11747474_a_at) / Fold change /veh NR4A2 (11747474_a_at) / RFU ABCC12 (11746883_a_at) / Fold change /veh ABCC12 (11746883_a_at) / RFU TMEM136 (11760407_x_at) / Fold change /veh TMEM136 (11760407_x_at) / RFU CLDN22 /// WWC2 (11732394_at) / Fold change /veh CLDN22 /// WWC2 (11732394_at) / RFU HLA-DPB1 (11760878_x_at) / Fold change /veh HLA-DPB1 (11760878_x_at) / RFU SPINT1 (11716480_a_at) / Fold change /veh SPINT1 (11716480_a_at) / RFU GAP43 (11754022_s_at) / Fold change /veh GAP43 (11754022_s_at) / RFU A4GNT (11735810_at) / Fold change /veh A4GNT (11735810_at) / RFU PRB3 (11715151_x_at) / Fold change /veh PRB3 (11715151_x_at) / RFU TUBB4B (11761932_at) / Fold change /veh TUBB4B (11761932_at) / RFU CAPN14 (11732068_a_at) / Fold change /veh CAPN14 (11732068_a_at) / RFU TMCC2 (11721928_a_at) / Fold change /veh TMCC2 (11721928_a_at) / RFU IRGQ (11745062_a_at) / Fold change /veh IRGQ (11745062_a_at) / RFU FAM174B (11720279_a_at) / Fold change /veh FAM174B (11720279_a_at) / RFU TMPRSS4 (11748680_a_at) / Fold change /veh TMPRSS4 (11748680_a_at) / RFU FAM212B (11763350_a_at) / Fold change /veh FAM212B (11763350_a_at) / RFU PLEKHG5 (11743358_a_at) / Fold change /veh PLEKHG5 (11743358_a_at) / RFU ZSCAN30 (11745921_a_at) / Fold change /veh ZSCAN30 (11745921_a_at) / RFU CMKLR1 (11741424_a_at) / Fold change /veh CMKLR1 (11741424_a_at) / RFU LOC101060620 /// MAPK8IP1 (11723275_at) / Fold change /veh LOC101060620 /// MAPK8IP1 (11723275_at) / RFU SPTSSB (11747773_x_at) / Fold change /veh SPTSSB (11747773_x_at) / RFU PRSS12 (11739890_at) / Fold change /veh PRSS12 (11739890_at) / RFU BIN1 (11741810_x_at) / Fold change /veh BIN1 (11741810_x_at) / RFU WNT11 (11732464_a_at) / Fold change /veh WNT11 (11732464_a_at) / RFU C10orf10 (11716521_a_at) / Fold change /veh C10orf10 (11716521_a_at) / RFU C5orf56 (11738089_at) / Fold change /veh C5orf56 (11738089_at) / RFU CYB561 (11721691_x_at) / Fold change /veh CYB561 (11721691_x_at) / RFU ANKRD19P (11752326_a_at) / Fold change /veh ANKRD19P (11752326_a_at) / RFU OR2T12 /// OR2T33 /// OR2T8 (11738714_s_at) / Fold change /veh OR2T12 /// OR2T33 /// OR2T8 (11738714_s_at) / RFU VCAN (11748164_a_at) / Fold change /veh VCAN (11748164_a_at) / RFU JSRP1 (11732532_at) / Fold change /veh JSRP1 (11732532_at) / RFU KRTAP10-11 (11738290_x_at) / Fold change /veh KRTAP10-11 (11738290_x_at) / RFU MYO3A (11730013_a_at) / Fold change /veh MYO3A (11730013_a_at) / RFU EBF3 (11725865_a_at) / Fold change /veh EBF3 (11725865_a_at) / RFU CAMK2N1 (11719241_x_at) / Fold change /veh CAMK2N1 (11719241_x_at) / RFU C5orf56 (11738088_a_at) / Fold change /veh C5orf56 (11738088_a_at) / RFU OLFML3 (11715873_a_at) / Fold change /veh OLFML3 (11715873_a_at) / RFU LOC100653217 /// NTM (11731650_a_at) / Fold change /veh LOC100653217 /// NTM (11731650_a_at) / RFU MAPK11 (11762145_a_at) / Fold change /veh MAPK11 (11762145_a_at) / RFU FIZ1 (11724087_x_at) / Fold change /veh FIZ1 (11724087_x_at) / RFU OASL (11726364_x_at) / Fold change /veh OASL (11726364_x_at) / RFU SOX15 (11748057_x_at) / Fold change /veh SOX15 (11748057_x_at) / RFU CD79A (11719716_a_at) / Fold change /veh CD79A (11719716_a_at) / RFU HIST1H1D (11736915_at) / Fold change /veh HIST1H1D (11736915_at) / RFU CASKIN2 (11723855_a_at) / Fold change /veh CASKIN2 (11723855_a_at) / RFU LOC730098 (11760151_x_at) / Fold change /veh LOC730098 (11760151_x_at) / RFU OR4N2 (11742367_at) / Fold change /veh OR4N2 (11742367_at) / RFU PRRT2 (11749266_a_at) / Fold change /veh PRRT2 (11749266_a_at) / RFU SNX32 (11753110_a_at) / Fold change /veh SNX32 (11753110_a_at) / RFU CDHR5 (11726645_a_at) / Fold change /veh CDHR5 (11726645_a_at) / RFU RCAN1 (11760418_a_at) / Fold change /veh RCAN1 (11760418_a_at) / RFU FAM167A (11723789_a_at) / Fold change /veh FAM167A (11723789_a_at) / RFU FAM26E (11764081_at) / Fold change /veh FAM26E (11764081_at) / RFU ISYNA1 (11749810_s_at) / Fold change /veh ISYNA1 (11749810_s_at) / RFU ACY1 (11761880_at) / Fold change /veh ACY1 (11761880_at) / RFU 11764098_at / Fold change /veh 11764098_at / RFU SAMD14 (11745864_x_at) / Fold change /veh SAMD14 (11745864_x_at) / RFU NPB (11741838_a_at) / Fold change /veh NPB (11741838_a_at) / RFU TMPRSS6 (11731388_a_at) / Fold change /veh TMPRSS6 (11731388_a_at) / RFU KRTAP10-2 (11738614_at) / Fold change /veh KRTAP10-2 (11738614_at) / RFU ARHGAP8 /// PRR5-ARHGAP8 (11727945_x_at) / Fold change /veh ARHGAP8 /// PRR5-ARHGAP8 (11727945_x_at) / RFU KRTAP5-7 /// NADSYN1 (11734609_at) / Fold change /veh KRTAP5-7 /// NADSYN1 (11734609_at) / RFU RASL12 (11751679_a_at) / Fold change /veh RASL12 (11751679_a_at) / RFU CDKN2B (11736163_a_at) / Fold change /veh CDKN2B (11736163_a_at) / RFU PRF1 (11729649_at) / Fold change /veh PRF1 (11729649_at) / RFU, ZNF638 /// ZNF638-IT1 / Fold change vs veh, ZNF638 /// ZNF638-IT1 / RFU, PANK3 / Fold change vs veh, PANK3 / RFU, SH3YL1 / Fold change vs veh, SH3YL1 / RFU, ZEB2 / Fold change vs veh, ZEB2 / RFU, NRIP1 / Fold change vs veh, NRIP1 / RFU, PTTG1IP / Fold change vs veh, PTTG1IP / RFU, CAPN2 / Fold change vs veh, CAPN2 / RFU, MED14 / Fold change vs veh, MED14 / RFU, SNORA58 / Fold change vs veh, SNORA58 / RFU, C1orf63 / Fold change vs veh, C1orf63 / RFU, LRRFIP1 / Fold change vs veh, LRRFIP1 / RFU, NDUFAF7 / Fold change vs veh, NDUFAF7 / RFU, SLC12A2 / Fold change vs veh, SLC12A2 / RFU, IBTK / Fold change vs veh, IBTK / RFU, ESF1 / Fold change vs veh, ESF1 / Fold change vs veh, TMEM50B / RFU, TAOK1 / Fold change vs veh, TAOK1 / RFU, ACBD3 / Fold change vs veh, ACBD3 / RFU, TMA16 / Fold change vs veh, TMA16 / RFU, RWDD3 / Fold change vs veh, RWDD3 / RFU, BCAT1 / Fold change vs veh, BCAT1 / RFU, EDEM3 / Fold change vs veh, EDEM3 / RFU, TMEM33 / Fold change vs veh, TMEM33 / RFU, WDR75 / Fold change vs veh, WDR75 / RFU, AHCTF1 / Fold change vs veh, AHCTF1 / RFU, TFRC / Fold change vs veh, TFRC / RFU, ZDHHC17 / Fold change vs veh, ZDHHC17 / RFU, NOM1 / Fold change vs veh, NOM1 / RFU, ARL8B / Fold change vs veh, ARL8B / RFU, ZBTB11 / Fold change vs veh, ZBTB11 / RFU, TAMM41 / Fold change vs veh, TAMM41 / RFU, KIAA1704 /// LOC100996395 / Fold change vs veh, KIAA1704 /// LOC100996395 / RFU, ING1 / Fold change vs veh, ING1 / RFU, TRMT61B / Fold change vs veh, TRMT61B / RFU, FUBP3 / Fold change vs veh, FUBP3 / RFU, TP53 / Fold change vs veh, TP53 / RFU, TNKS2 / Fold change vs veh, TNKS2 / RFU, ZFP14 / Fold change vs veh, ZFP14 / RFU, ACTR2 / Fold change vs veh, ACTR2 / RFU, PPP3R1 / Fold change vs veh, PPP3R1 / RFU, PIK3R1 / Fold change vs veh, PIK3R1 / RFU, HNRNPA1 / Fold change vs veh, HNRNPA1 / RFU, RNF170 / Fold change vs veh, RNF170 / RFU, ZNF28 / Fold change vs veh, ZNF28 / RFU, RNGTT / Fold change vs veh, RNGTT / RFU, OGT / Fold change vs veh, OGT / RFU, BRD1 / Fold change vs veh, BRD1 / RFU, MARS / Fold change vs veh, MARS / RFU, ZNF655 / Fold change vs veh, ZNF655 / RFU, FAHD1 / Fold change vs veh, FAHD1 / RFU, BDP1 / Fold change vs veh, BDP1 / RFU, LRRCC1 / Fold change vs veh, LRRCC1 / RFU, ARID1A / Fold change vs veh, ARID1A / RFU, ZNF146 / Fold change vs veh, ZNF146 / RFU, ZNF330 / Fold change vs veh, ZNF330 / RFU, GPN3 / Fold change vs veh, GPN3 / RFU, C9orf123 / Fold change vs veh, C9orf123 / RFU, N4BP2L2 / Fold change vs veh, N4BP2L2 / RFU, ARFIP1 / Fold change vs veh, ARFIP1 / RFU, FAM179B / Fold change vs veh, FAM179B / RFU, BCL10 / Fold change vs veh, BCL10 / RFU, UHRF1BP1L / Fold change vs veh, UHRF1BP1L / RFU, BET1 / Fold change vs veh, BET1 / RFU, CNOT2 / Fold change vs veh, CNOT2 / RFU, ZNF268 / Fold change vs veh, ZNF268 / Fold change vs veh, ZNF507 / RFU, DGCR2 / Fold change vs veh, DGCR2 / RFU, WDSUB1 / Fold change vs veh, WDSUB1 / Fold change vs veh, HSP90B1 /// MIR3652 / RFU, ADSS / Fold change vs veh, ADSS / RFU, GK / Fold change vs veh, GK / RFU, ZNF148 / Fold change vs veh, ZNF148 / RFU, TAF9 / Fold change vs veh, TAF9 / RFU, SLC1A5 / Fold change vs veh, SLC1A5 / RFU, SLMO2 / Fold change vs veh, SLMO2 / RFU, ABCC4 / Fold change vs veh, ABCC4 / RFU, LOC101060439 /// RAP1B / Fold change vs veh, LOC101060439 /// RAP1B / RFU, RFX7 / Fold change vs veh, RFX7 / RFU, GTPBP10 / Fold change vs veh, GTPBP10 / RFU, CNEP1R1 / Fold change vs veh, CNEP1R1 / RFU, BIVM-ERCC5 /// ERCC5 / Fold change vs veh, BIVM-ERCC5 /// ERCC5 / RFU, ILF3 / Fold change vs veh, ILF3 / RFU 11762660_at / Fold change /veh 11762660_at / RFU VCAN (11757783_s_at) / Fold change /veh VCAN (11757783_s_at) / RFU DDX43 (11728927_at) / Fold change /veh DDX43 (11728927_at) / RFU KRT8 (11758188_x_at) / Fold change /veh KRT8 (11758188_x_at) / RFU NKD1 (11759106_at) / Fold change /veh NKD1 (11759106_at) / RFU SRD5A1 (11742802_a_at) / Fold change /veh SRD5A1 (11742802_a_at) / RFU TPSAB1 /// TPSB2 (11721975_s_at) / Fold change /veh TPSAB1 /// TPSB2 (11721975_s_at) / RFU GSTM3 (11746129_a_at) / Fold change /veh GSTM3 (11746129_a_at) / RFU IL23R (11737362_x_at) / Fold change /veh IL23R (11737362_x_at) / RFU TMEM51 (11727254_a_at) / Fold change /veh TMEM51 (11727254_a_at) / RFU PIWIL2 (11732686_x_at) / Fold change /veh PIWIL2 (11732686_x_at) / RFU ORM1 (11744905_x_at) / Fold change /veh ORM1 (11744905_x_at) / RFU CCDC152 (11743942_at) / Fold change /veh CCDC152 (11743942_at) / RFU ECM1 (11717891_a_at) / Fold change /veh ECM1 (11717891_a_at) / RFU IL23R (11748794_a_at) / Fold change /veh IL23R (11748794_a_at) / RFU TNFAIP8L3 (11732012_x_at) / Fold change /veh TNFAIP8L3 (11732012_x_at) / RFU MBOAT4 (11741988_at) / Fold change /veh MBOAT4 (11741988_at) / RFU 11764193_at / Fold change /veh 11764193_at / RFU TMEM53 (11763286_at) / Fold change /veh TMEM53 (11763286_at) / RFU MAGEB2 (11727129_at) / Fold change /veh MAGEB2 (11727129_at) / RFU TMEM200A (11744735_a_at) / Fold change /veh TMEM200A (11744735_a_at) / RFU CCDC152 (11751479_a_at) / Fold change /veh CCDC152 (11751479_a_at) / RFU FAM211A (11726209_a_at) / Fold change /veh FAM211A (11726209_a_at) / RFU RGS16 (11746705_a_at) / Fold change /veh RGS16 (11746705_a_at) / RFU VCAN (11755009_s_at) / Fold change /veh VCAN (11755009_s_at) / RFU RHOB (11743442_s_at) / Fold change /veh RHOB (11743442_s_at) / RFU RGS16 (11720943_a_at) / Fold change /veh RGS16 (11720943_a_at) / RFU RGS16 (11720944_at) / Fold change /veh RGS16 (11720944_at) / RFU, VPS4B / Fold change vs veh, VPS4B / RFU, CREB1 / Fold change vs veh, CREB1 / RFU, DNAJC13 / Fold change vs veh, DNAJC13 / RFU, GNAQ / Fold change vs veh, GNAQ / RFU, CDK5R1 / Fold change vs veh, CDK5R1 / RFU, ZRANB3 / Fold change vs veh, ZRANB3 / RFU, CUL4A / Fold change vs veh, CUL4A / RFU, CCNY / Fold change vs veh, CCNY / RFU, UFL1 / Fold change vs veh, UFL1 / RFU, COG3 / Fold change vs veh, COG3 / RFU, DIAPH2 / Fold change vs veh, DIAPH2 / RFU, SKA2 / Fold change vs veh, SKA2 / RFU, AFF3 / Fold change vs veh, AFF3 / RFU, LMF1 / Fold change vs veh, LMF1 / RFU, IPO11 / Fold change vs veh, IPO11 / RFU, DFFB / Fold change vs veh, DFFB / RFU, FOXP1 / Fold change vs veh, FOXP1 / RFU, CARD8 / Fold change vs veh, CARD8 / RFU, STRN3 / Fold change vs veh, STRN3 / RFU, ADK / Fold change vs veh, ADK / RFU, RASSF2 / Fold change vs veh, RASSF2 / RFU, WIPF1 / Fold change vs veh, WIPF1 / RFU, LARP1B / Fold change vs veh, LARP1B / RFU, RASA1 / Fold change vs veh, RASA1 / RFU, RB1 / Fold change vs veh, RB1 / RFU, PPFIA1 / Fold change vs veh, PPFIA1 / RFU, MAT2A / Fold change vs veh, MAT2A / RFU, CCT5 / Fold change vs veh, CCT5 / RFU, WDR92 / Fold change vs veh, WDR92 / RFU, CUX1 / Fold change vs veh, CUX1 / RFU, TTC7A / Fold change vs veh, TTC7A / RFU, TMEM135 / Fold change vs veh, TMEM135 / RFU, DEPTOR / Fold change vs veh, DEPTOR / RFU, CPM / Fold change vs veh, CPM / RFU, DNAJB6 / Fold change vs veh, DNAJB6 / RFU, CACNA2D3 / Fold change vs veh, CACNA2D3 / RFU, DTX4 / Fold change vs veh, DTX4 / RFU, TFCP2 / Fold change vs veh, TFCP2 / RFU, GMCL1 /// GMCL1P1 / Fold change vs veh, GMCL1 /// GMCL1P1 / RFU, AEBP2 / Fold change vs veh, AEBP2 / RFU, SNHG1 /// SNORD22 /// SNORD25 /// SNORD26 /// SNORD27 /// SNORD28 /// SNORD29 /// SNORD31 / Fold change vs veh, SNHG1 /// SNORD22 /// SNORD25 /// SNORD26 /// SNORD27 /// SNORD28 /// SNORD29 /// SNORD31 / Fold change (Aza/veh), C12orf56 (ProbeSet 11735607_a_at) / Fold change (ACY-1035/veh), C12orf56 (ProbeSet 11735607_a_at) / Fold change (Aza/veh), FGFR1OP (ProbeSet 11751329_s_at) / Fold change (ACY-1035/veh), FGFR1OP (ProbeSet 11751329_s_at) / Fold change (Aza/veh), VPS36 (ProbeSet 11739960_a_at) / Fold change (ACY-1035/veh), VPS36 (ProbeSet 11739960_a_at) / RFU SYPL1 (11715823_x_at) / Fold change /veh SYPL1 (11715823_x_at) / RFU IGFBP7 (11715501_s_at) / Fold change /veh IGFBP7 (11715501_s_at) / RFU REEP3 (11722064_at) / Fold change /veh REEP3 (11722064_at) / RFU IGLL1 (11728026_x_at) / Fold change /veh IGLL1 (11728026_x_at): dose or concentration left out as unconfirmed
Conditions: ProbeSet 11749781_s_at; LIST B

For `Nc1ccc(-c2cccs2)cc1NC(=O)c1ccc2c(c1)cc(C1CC1)n2CCN1CCOCC1` [ACY-1035], the “Fold change vs veh, BCAT1” value was 0.87.

— paper PMC5218480 (PLoS ONE, 2017)
